Data: ChEMBL document CHEMBL3797052 (Eur J Med Chem, 2016)

test system: CCRF-CEM; assay: Antiproliferative activity against human CCRF-CEM cells assessed as cell growth at 10^-5 M after 48 hrs by sulforhodamine B assay; type: functional; details: read-out: Activity

Compound | growth at 10 µM
CNC(=O)c1cc(Oc2ccc3nc(NC(=O)Nc4ccc(C(F)(F)F)cc4)sc3c2)ccn1 | 68.1%
CNC(=O)c1cc(Oc2ccc3nc(NC(=O)c4ccc5ncccc5c4)sc3c2)ccn1 | 91%

test system: not listed separately; assay: Antiproliferative activity against human MOLT4 cells assessed as cell growth at 10^-5 M after 48 hrs by sulforhodamine B assay; type: functional; details: MOLT-4, 48 h, read-out: Activity

Compound | growth at 10 µM
CNC(=O)c1cc(Oc2ccc3nc(NC(=O)Nc4ccc(C(F)(F)F)cc4)sc3c2)ccn1 | 73.3%
CNC(=O)c1cc(Oc2ccc3nc(NC(=O)c4ccc5ncccc5c4)sc3c2)ccn1 | 94.2%

test system: SR; assay: Antiproliferative activity against human SR cells assessed as cell growth at 10^-5 M after 48 hrs by sulforhodamine B assay; type: functional; details: read-out: Activity

Compound | growth at 10 µM
CNC(=O)c1cc(Oc2ccc3nc(NC(=O)Nc4ccc(C(F)(F)F)cc4)sc3c2)ccn1 | 70.6%
CNC(=O)c1cc(Oc2ccc3nc(NC(=O)c4ccc5ncccc5c4)sc3c2)ccn1 | 88.8%

test system: A549; assay: Antiproliferative activity against human A549/ATCC cells assessed as cell growth at 10^-5 M after 48 hrs by sulforhodamine B assay; type: functional; details: A549, 48 h, read-out: Activity

Compound | growth at 10 µM
CNC(=O)c1cc(Oc2ccc3nc(NC(=O)Nc4ccc(C(F)(F)F)cc4)sc3c2)ccn1 | 1.79%
CNC(=O)c1cc(Oc2ccc3nc(NC(=O)c4ccc5ncccc5c4)sc3c2)ccn1 | 76.5%

test system: EKVX; assay: Antiproliferative activity against human EKVX cells assessed as cell growth at 10^-5 M after 48 hrs by sulforhodamine B assay; type: functional; details: read-out: Activity

Compound | growth at 10 µM
CNC(=O)c1cc(Oc2ccc3nc(NC(=O)Nc4ccc(C(F)(F)F)cc4)sc3c2)ccn1 | 53.5%
CNC(=O)c1cc(Oc2ccc3nc(NC(=O)c4ccc5ncccc5c4)sc3c2)ccn1 | 87.5%

test system: NCI-H226; assay: Antiproliferative activity against human NCI-H226 cells assessed as cell growth at 10^-5 M after 48 hrs by sulforhodamine B assay; type: functional; details: NCI-H226, 48 h, read-out: Activity

Compound | growth at 10 µM
CNC(=O)c1cc(Oc2ccc3nc(NC(=O)Nc4ccc(C(F)(F)F)cc4)sc3c2)ccn1 | 85.6%
CNC(=O)c1cc(Oc2ccc3nc(NC(=O)c4ccc5ncccc5c4)sc3c2)ccn1 | 68.6%

test system: NCI-H23; assay: Antiproliferative activity against human NCI-H23 cells assessed as cell growth at 10^-5 M after 48 hrs by sulforhodamine B assay; type: functional; details: NCI-H23, 48 h, read-out: Activity

Compound | growth at 10 µM
CNC(=O)c1cc(Oc2ccc3nc(NC(=O)Nc4ccc(C(F)(F)F)cc4)sc3c2)ccn1 | 63.4%
CNC(=O)c1cc(Oc2ccc3nc(NC(=O)c4ccc5ncccc5c4)sc3c2)ccn1 | 92.7%

test system: NCI-H460; assay: Antiproliferative activity against human NCI-H460 cells assessed as cell growth at 10^-5 M after 48 hrs by sulforhodamine B assay; type: functional; details: NCI-H460, 48 h, read-out: Activity

Compound | growth at 10 µM
CNC(=O)c1cc(Oc2ccc3nc(NC(=O)Nc4ccc(C(F)(F)F)cc4)sc3c2)ccn1 | 33.4%
CNC(=O)c1cc(Oc2ccc3nc(NC(=O)c4ccc5ncccc5c4)sc3c2)ccn1 | 98.6%

test system: not listed separately; assay: Antiproliferative activity against human SF295 cells assessed as cell growth at 10^-5 M after 48 hrs by sulforhodamine B assay; type: functional; details: SF-295, 48 h, read-out: Activity

Compound | growth at 10 µM
CNC(=O)c1cc(Oc2ccc3nc(NC(=O)Nc4ccc(C(F)(F)F)cc4)sc3c2)ccn1 | 63.2%
CNC(=O)c1cc(Oc2ccc3nc(NC(=O)c4ccc5ncccc5c4)sc3c2)ccn1 | 86.9%

test system: not listed separately; assay: Antiproliferative activity against human SNB75 cells assessed as cell growth at 10^-5 M after 48 hrs by sulforhodamine B assay; type: functional; details: SNB-75, 48 h, read-out: Activity

Compound | growth at 10 µM
CNC(=O)c1cc(Oc2ccc3nc(NC(=O)Nc4ccc(C(F)(F)F)cc4)sc3c2)ccn1 | 29.1%
CNC(=O)c1cc(Oc2ccc3nc(NC(=O)c4ccc5ncccc5c4)sc3c2)ccn1 | 86.5%

test system: U-251; assay: Antiproliferative activity against human U251 cells assessed as cell growth at 10^-5 M after 48 hrs by sulforhodamine B assay; type: functional; details: U-251, 48 h, read-out: Activity

Compound | growth at 10 µM
CNC(=O)c1cc(Oc2ccc3nc(NC(=O)Nc4ccc(C(F)(F)F)cc4)sc3c2)ccn1 | 22.4%
CNC(=O)c1cc(Oc2ccc3nc(NC(=O)c4ccc5ncccc5c4)sc3c2)ccn1 | 93.6%

test system: M14; assay: Antiproliferative activity against human M14 cells assessed as cell growth at 10^-5 M after 48 hrs by sulforhodamine B assay; type: functional; details: M14, 48 h, read-out: Activity

Compound | growth at 10 µM
CNC(=O)c1cc(Oc2ccc3nc(NC(=O)Nc4ccc(C(F)(F)F)cc4)sc3c2)ccn1 | 35.8%
CNC(=O)c1cc(Oc2ccc3nc(NC(=O)c4ccc5ncccc5c4)sc3c2)ccn1 | 102%

test system: SK-MEL-5; assay: Antiproliferative activity against human SK-MEL-5 cells assessed as cell growth at 10^-5 M after 48 hrs by sulforhodamine B assay; type: functional; details: SK-MEL-5, 48 h, read-out: Activity

Compound | growth at 10 µM
CNC(=O)c1cc(Oc2ccc3nc(NC(=O)Nc4ccc(C(F)(F)F)cc4)sc3c2)ccn1 | 56.9%
CNC(=O)c1cc(Oc2ccc3nc(NC(=O)c4ccc5ncccc5c4)sc3c2)ccn1 | 86.4%

test system: not listed separately; assay: Antiproliferative activity against human UACC257 cells assessed as cell growth at 10^-5 M after 48 hrs by sulforhodamine B assay; type: functional; details: UACC-257, 48 h, read-out: Activity

Compound | growth at 10 µM
CNC(=O)c1cc(Oc2ccc3nc(NC(=O)Nc4ccc(C(F)(F)F)cc4)sc3c2)ccn1 | 86.7%
CNC(=O)c1cc(Oc2ccc3nc(NC(=O)c4ccc5ncccc5c4)sc3c2)ccn1 | 93.1%

test system: not listed separately; assay: Antiproliferative activity against human IGROV1 cells assessed as cell growth at 10^-5 M after 48 hrs by sulforhodamine B assay; type: functional; details: IGROV-1, 48 h, read-out: Activity

Compound | growth at 10 µM
CNC(=O)c1cc(Oc2ccc3nc(NC(=O)Nc4ccc(C(F)(F)F)cc4)sc3c2)ccn1 | 70.9%
CNC(=O)c1cc(Oc2ccc3nc(NC(=O)c4ccc5ncccc5c4)sc3c2)ccn1 | 93.3%

test system: not listed separately; assay: Antiproliferative activity against human OVCAR3 cells assessed as cell growth at 10^-5 M after 48 hrs by sulforhodamine B assay; type: functional; details: OVCAR-3, 48 h, read-out: Activity

Compound | growth at 10 µM
CNC(=O)c1cc(Oc2ccc3nc(NC(=O)Nc4ccc(C(F)(F)F)cc4)sc3c2)ccn1 | 24%
CNC(=O)c1cc(Oc2ccc3nc(NC(=O)c4ccc5ncccc5c4)sc3c2)ccn1 | 98.9%

test system: not listed separately; assay: Antiproliferative activity against human OVCAR5 cells assessed as cell growth at 10^-5 M after 48 hrs by sulforhodamine B assay; type: functional; details: OVCAR-5, 48 h, read-out: Activity

Compound | growth at 10 µM
CNC(=O)c1cc(Oc2ccc3nc(NC(=O)Nc4ccc(C(F)(F)F)cc4)sc3c2)ccn1 | 93.9%
CNC(=O)c1cc(Oc2ccc3nc(NC(=O)c4ccc5ncccc5c4)sc3c2)ccn1 | 106%

test system: not listed separately; assay: Antiproliferative activity against human NCI-ADR-RES cells assessed as cell growth at 10^-5 M after 48 hrs by sulforhodamine B assay; type: functional; details: read-out: Activity

Compound | growth at 10 µM
CNC(=O)c1cc(Oc2ccc3nc(NC(=O)Nc4ccc(C(F)(F)F)cc4)sc3c2)ccn1 | 58.4%
CNC(=O)c1cc(Oc2ccc3nc(NC(=O)c4ccc5ncccc5c4)sc3c2)ccn1 | 88.8%

test system: not listed separately; assay: Antiproliferative activity against human SKOV3 cells assessed as cell growth at 10^-5 M after 48 hrs by sulforhodamine B assay; type: functional; details: SK-OV-3, 48 h, read-out: Activity

Compound | growth at 10 µM
CNC(=O)c1cc(Oc2ccc3nc(NC(=O)Nc4ccc(C(F)(F)F)cc4)sc3c2)ccn1 | 105%

test system: 786-0; assay: Antiproliferative activity against human 786-0 cells assessed as cell growth at 10^-5 M after 48 hrs by sulforhodamine B assay; type: functional; details: 786-0, 48 h, read-out: Activity

Compound | growth at 10 µM
CNC(=O)c1cc(Oc2ccc3nc(NC(=O)Nc4ccc(C(F)(F)F)cc4)sc3c2)ccn1 | 35.5%
CNC(=O)c1cc(Oc2ccc3nc(NC(=O)c4ccc5ncccc5c4)sc3c2)ccn1 | 98.4%

test system: ACHN; assay: Antiproliferative activity against human ACHN cells assessed as cell growth at 10^-5 M after 48 hrs by sulforhodamine B assay; type: functional; details: read-out: Activity

Compound | growth at 10 µM
CNC(=O)c1cc(Oc2ccc3nc(NC(=O)Nc4ccc(C(F)(F)F)cc4)sc3c2)ccn1 | 73.4%
CNC(=O)c1cc(Oc2ccc3nc(NC(=O)c4ccc5ncccc5c4)sc3c2)ccn1 | 102%

test system: not listed separately; assay: Antiproliferative activity against human RXF393 cells assessed as cell growth at 10^-5 M after 48 hrs by sulforhodamine B assay; type: functional; details: RXF 393, 48 h, read-out: Activity

Compound | growth at 10 µM
CNC(=O)c1cc(Oc2ccc3nc(NC(=O)Nc4ccc(C(F)(F)F)cc4)sc3c2)ccn1 | 85.5%
CNC(=O)c1cc(Oc2ccc3nc(NC(=O)c4ccc5ncccc5c4)sc3c2)ccn1 | 109%

test system: SN12C; assay: Antiproliferative activity against human SN12C cells assessed as cell growth at 10^-5 M after 48 hrs by sulforhodamine B assay; type: functional; details: read-out: Activity

Compound | growth at 10 µM
CNC(=O)c1cc(Oc2ccc3nc(NC(=O)Nc4ccc(C(F)(F)F)cc4)sc3c2)ccn1 | 71.2%
CNC(=O)c1cc(Oc2ccc3nc(NC(=O)c4ccc5ncccc5c4)sc3c2)ccn1 | 92.6%

test system: not listed separately; assay: Antiproliferative activity against human TK10 cells assessed as cell growth at 10^-5 M after 48 hrs by sulforhodamine B assay; type: functional; details: TK-10, 48 h, read-out: Activity

Compound | growth at 10 µM
CNC(=O)c1cc(Oc2ccc3nc(NC(=O)Nc4ccc(C(F)(F)F)cc4)sc3c2)ccn1 | 55.3%
CNC(=O)c1cc(Oc2ccc3nc(NC(=O)c4ccc5ncccc5c4)sc3c2)ccn1 | 90.5%

test system: not listed separately; assay: Antiproliferative activity against human PC3 cells assessed as cell growth at 10^-5 M after 48 hrs by sulforhodamine B assay; type: functional; details: PC-3, 48 h, read-out: Activity

Compound | growth at 10 µM
CNC(=O)c1cc(Oc2ccc3nc(NC(=O)Nc4ccc(C(F)(F)F)cc4)sc3c2)ccn1 | 58.8%
CNC(=O)c1cc(Oc2ccc3nc(NC(=O)c4ccc5ncccc5c4)sc3c2)ccn1 | 93.2%

test system: MCF7; assay: Antiproliferative activity against human MCF7 cells assessed as cell growth at 10^-5 M after 48 hrs by sulforhodamine B assay; type: functional; details: MCF7, 48 h, read-out: Activity

Compound | growth at 10 µM
CNC(=O)c1cc(Oc2ccc3nc(NC(=O)Nc4ccc(C(F)(F)F)cc4)sc3c2)ccn1 | 42%
CNC(=O)c1cc(Oc2ccc3nc(NC(=O)c4ccc5ncccc5c4)sc3c2)ccn1 | 88%

test system: MDA-MB-231; assay: Antiproliferative activity against human MDA-MB-231 cells assessed as cell growth at 10^-5 M after 48 hrs by sulforhodamine B assay; type: functional; details: MDA-MB-231, 48 h, read-out: Activity

Compound | growth at 10 µM
CNC(=O)c1cc(Oc2ccc3nc(NC(=O)Nc4ccc(C(F)(F)F)cc4)sc3c2)ccn1 | 63.5%
CNC(=O)c1cc(Oc2ccc3nc(NC(=O)c4ccc5ncccc5c4)sc3c2)ccn1 | 98.6%
